Measured values as given in a compilation of properties of binary mixtures (doi:10.1007/s10953-005-5594-7).

Experiment: xn = mol fraction of the nth substance listed
Details: 298.15 K, 101.3 kPa

CCCC[n+]1ccn(C)c1.F[P-](F)(F)(F)(F)F + CCC(=O)CC
Details	viscosity [mPa·s]
x2 = 0	270

CCOC(C)=O + CCCC[n+]1ccn(C)c1.F[P-](F)(F)(F)(F)F
Details	viscosity [mPa·s]
x1 = 1	0.439

CCCC[n+]1ccn(C)c1.F[P-](F)(F)(F)(F)F + CC(C)=O
Details	viscosity [mPa·s]
x2 = 0	270
x2 = 0.1147	137
x2 = 0.198	84.8
x2 = 0.2923	46.7
x2 = 0.4035	24
x2 = 0.4993	13.41
x2 = 0.5495	9.68
x2 = 0.6519	4.99
x2 = 0.6989	3.69
x2 = 0.8956	0.81
x2 = 0.9481	0.516

CCC(C)=O + CCCC[n+]1ccn(C)c1.F[P-](F)(F)(F)(F)F
Details	viscosity [mPa·s]
x1 = 1	0.388

CCC(=O)CC + CCCC[n+]1ccn(C)c1.F[P-](F)(F)(F)(F)F
Details	viscosity [mPa·s]
x1 = 0.1088	137
x1 = 0.3986	24.26
x1 = 0.4491	17.94
x1 = 0.5503	10.02
x1 = 0.601	7.37
x1 = 0.6983	4.03
x1 = 0.8007	2.022
x1 = 0.9019	0.972
x1 = 0.948	0.69
x1 = 1	0.458

CCCC[n+]1ccn(C)c1.F[P-](F)(F)(F)(F)F + CCOC(C)=O
Details	viscosity [mPa·s]
x2 = 0	270
x2 = 0.0937	149
x2 = 0.1914	87.9
x2 = 0.2918	48.2
x2 = 0.3944	27.52
x2 = 0.4485	20.54
x2 = 0.4967	16.16
x2 = 0.5529	11.52
x2 = 0.6039	8.45
x2 = 0.7092	4.21
x2 = 0.8037	2.208
x2 = 0.898	1.083
x2 = 0.9504	0.699

O=C1CCCC1 + CCCC[n+]1ccn(C)c1.F[P-](F)(F)(F)(F)F
Details	viscosity [mPa·s]
x1 = 0.1883	114.8
x1 = 0.4475	33.04
x1 = 0.5025	24.71
x1 = 0.6034	14.52
x1 = 0.6502	11.01
x1 = 0.7011	7.89
x1 = 0.8041	4.19
x1 = 0.8982	2.274
x1 = 0.9518	1.566
x1 = 1	1.074

CC(C)=O + CCCC[n+]1ccn(C)c1.F[P-](F)(F)(F)(F)F
Details	viscosity [mPa·s]
x1 = 1	0.316

CCCC[n+]1ccn(C)c1.F[P-](F)(F)(F)(F)F + CCC(C)=O
Details	viscosity [mPa·s]
x2 = 0	270
x2 = 0.0995	145
x2 = 0.2007	81.6
x2 = 0.5002	13.55
x2 = 0.5506	9.82
x2 = 0.5988	7.27
x2 = 0.7023	3.701
x2 = 0.8004	1.861
x2 = 0.9027	0.861
x2 = 0.9487	0.606
